ChEMBL document CHEMBL5226297, “Small-Molecule Drug Discovery in Triple Negative Breast Cancer: Current Situation and Future Directions” (J Med Chem, 2021)

How the values were obtained:
[1] = target: Proto-oncogene tyrosine-protein kinase Src (Homo sapiens, UniProt P12931); assay: Inhibition of human SRC by microplate reader analysis
[2] = Inhibition of ERK (unknown origin); set-up: species or system Homo sapiens
[3] = Inhibition of MEK (unknown origin); set-up: species or system Homo sapiens
MDA-MB-231 [4] = assay: Anticancer activity against human MDA-MB-231 cells assessed as cell growth inhibition incubated for 48 hrs by BrdU assay; type: functional, cell-based; conditions: MDA-MB-231, 48 h
MDA-MB-468 [5] = assay: Anticancer activity against human MDA-MB-468 cells assessed as cell growth inhibition incubated for 48 hrs by BrdU assay; type: functional, cell-based; conditions: MDA-MB-468, 48 h
MDA-MB-231 [6] = assay: Anticancer activity against human MDA-MB-231 cells assessed as cell growth inhibition incubated for 72 hrs by MTT assay; type: functional, cell-based; conditions: MDA-MB-231, 72 h
[7] = target: Plasminogen activator inhibitor 1 (Homo sapiens) (UniProt P05121)
Hs-578T [8] = assay: Anticancer activity against human Hs-578T cells assessed as cell growth inhibition by MTS assay; type: functional, cell-based
MDA-MB-231 [9] = assay: Anticancer activity against human MDA-MB-231 cells assessed as cell growth inhibition by MTS assay; type: functional, cell-based
BT-549 [10] = assay: Anticancer activity against human BT-549 cells assessed as cell growth inhibition by MTS assay; type: functional, cell-based
Interleukin-8 = Interleukin-8 (Homo sapiens, UniProt P10145); assay: Inhibition of human IL-8 by ELISA assay
HCC1937 = assay: Anticancer activity against human HCC1937 cells assessed as cell growth inhibition incubated for 24 hrs by MTS assay; type: functional, cell-based; conditions: HCC1937, 24 h
HCC1806 = assay: Anticancer activity against human HCC1806 cells assessed as cell growth inhibition incubated for 24 hrs by MTS assay; type: functional, cell-based; conditions: HCC1806, 24 h
BT-549 [11] = assay: Anticancer activity against human BT-549 cells assessed as cell growth inhibition incubated for 72 hrs by CCK-8 assay; type: functional, cell-based; conditions: BT-549, 72 h
MDA-MB-231 [12] = assay: Anticancer activity against human MDA-MB-231 cells assessed as cell growth inhibition incubated for 72 hrs by CCK-8 assay; type: functional, cell-based; conditions: MDA-MB-231, 72 h
Hs-578T [13] = assay: Anticancer activity against human Hs-578T cells assessed as cell growth inhibition incubated for 72 hrs by CCK-8 assay; type: functional, cell-based
MDA-MB-231 [14] = assay: Anticancer activity against human MDA-MB-231 cells assessed as cell growth inhibition by MTT assay; type: functional, cell-based
MDA-MB-231 [15] = assay: Anticancer activity against human MDA-MB-231 cells assessed as cell growth inhibition incubated for 24 hrs by MTT assay; type: functional, cell-based; conditions: MDA-MB-231, 24 h
[16] = target: Protein tyrosine phosphatase type IVA 3 (Homo sapiens) (UniProt O75365); assay: Inhibition of human PRL-3 incubated for 48 hrs by MMP assay
[17] = target: Dual specificity mitogen-activated protein kinase kinase 1 (Homo sapiens, UniProt Q02750); assay: Inhibition of MEK1 (unknown origin)
HCC70 = assay: Anticancer activity against human HCC70 cells assessed as cell growth inhibition incubated up to 72 hrs by Cell-Titre Glo assay; type: functional, cell-based; conditions: HCC70, 72 h
MDA-MB-231 [18] = assay: Anticancer activity against human MDA-MB-231 cells assessed as cell growth inhibition incubated up to 72 hrs by Cell-Titre Glo assay; type: functional, cell-based; conditions: MDA-MB-231, 72 h
[19] = target: Protein SET (Homo sapiens) (UniProt Q01105); assay: Inhibition of SET (unknown origin)
MDA-MB-436 [20] = assay: Anticancer activity against human MDA-MB-436 cells assessed as cell growth inhibition incubated for 24 hrs by MTT assay; type: functional, cell-based; conditions: MDA-MB-436, 24 h
BT-549 [21] = assay: Anticancer activity against human BT-549 cells assessed as cell growth inhibition incubated for 24 hrs by MTT assay; type: functional, cell-based; conditions: BT-549, 24 h
MDA-MB-468 [22] = assay: Anticancer activity against human MDA-MB-468 cells assessed as cell growth inhibition incubated for 48 hrs by MTT assay; type: functional, cell-based; conditions: MDA-MB-468, 48 h
MDA-MB-231 [23] = assay: cells; conditions: Homo sapiens, MDA-MB-231, 48 h
MDA-MB-436 [24] = assay: Anticancer activity against human MDA-MB-436 cells assessed as cell growth inhibition by crystal violet staining based haemocytometer analysis; type: functional
MDA-MB-231 [25] = assay: Anticancer activity against human MDA-MB-231 cells assessed as cell growth inhibition by crystal violet staining based haemocytometer analysis; type: functional
HCC38 = assay: Anticancer activity against human HCC38 cells assessed as cell growth inhibition by crystal violet staining based haemocytometer analysis; type: functional

Sequence of Dual specificity mitogen-activated protein kinase kinase 1 (Q02750 whole entry): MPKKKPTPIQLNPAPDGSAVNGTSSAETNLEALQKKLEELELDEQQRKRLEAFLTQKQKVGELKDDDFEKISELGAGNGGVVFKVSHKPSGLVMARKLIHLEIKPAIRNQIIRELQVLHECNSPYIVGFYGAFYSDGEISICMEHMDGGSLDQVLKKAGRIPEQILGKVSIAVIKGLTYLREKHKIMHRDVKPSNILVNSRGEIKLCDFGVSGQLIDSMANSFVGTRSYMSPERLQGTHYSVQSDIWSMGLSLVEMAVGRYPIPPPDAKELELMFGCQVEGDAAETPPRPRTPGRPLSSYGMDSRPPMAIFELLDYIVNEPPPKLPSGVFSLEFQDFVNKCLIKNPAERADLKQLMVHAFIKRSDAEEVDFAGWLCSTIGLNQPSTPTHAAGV
Sequence of Proto-oncogene tyrosine-protein kinase Src (P12931 2-536 limits assumed): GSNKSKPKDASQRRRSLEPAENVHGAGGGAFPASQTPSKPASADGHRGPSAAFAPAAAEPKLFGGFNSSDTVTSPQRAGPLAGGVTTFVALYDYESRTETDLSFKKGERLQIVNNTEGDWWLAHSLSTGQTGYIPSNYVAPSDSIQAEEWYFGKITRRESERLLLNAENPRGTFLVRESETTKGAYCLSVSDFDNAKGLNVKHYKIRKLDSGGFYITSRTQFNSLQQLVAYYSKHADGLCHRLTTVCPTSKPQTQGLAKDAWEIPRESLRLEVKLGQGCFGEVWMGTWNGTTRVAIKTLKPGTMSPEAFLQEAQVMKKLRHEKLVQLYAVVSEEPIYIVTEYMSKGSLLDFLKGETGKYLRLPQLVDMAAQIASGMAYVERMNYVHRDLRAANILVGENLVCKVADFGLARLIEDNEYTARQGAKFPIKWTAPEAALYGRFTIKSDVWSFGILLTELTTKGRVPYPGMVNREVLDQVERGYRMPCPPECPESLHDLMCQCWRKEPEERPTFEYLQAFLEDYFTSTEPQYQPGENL
Sequence of Plasminogen activator inhibitor 1 (Homo sapiens) (P05121 whole entry): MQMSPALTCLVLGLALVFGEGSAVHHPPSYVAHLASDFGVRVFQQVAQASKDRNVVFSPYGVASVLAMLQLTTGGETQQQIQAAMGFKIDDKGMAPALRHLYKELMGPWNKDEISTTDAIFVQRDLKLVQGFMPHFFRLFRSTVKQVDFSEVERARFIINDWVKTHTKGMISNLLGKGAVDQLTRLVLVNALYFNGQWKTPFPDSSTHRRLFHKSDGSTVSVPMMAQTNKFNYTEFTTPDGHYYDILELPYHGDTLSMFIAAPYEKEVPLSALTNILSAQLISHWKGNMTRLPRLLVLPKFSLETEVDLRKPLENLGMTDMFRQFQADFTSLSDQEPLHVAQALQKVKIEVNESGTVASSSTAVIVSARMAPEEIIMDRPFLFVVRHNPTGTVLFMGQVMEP
Sequence of Protein tyrosine phosphatase type IVA 3 (Homo sapiens) (O75365 whole entry): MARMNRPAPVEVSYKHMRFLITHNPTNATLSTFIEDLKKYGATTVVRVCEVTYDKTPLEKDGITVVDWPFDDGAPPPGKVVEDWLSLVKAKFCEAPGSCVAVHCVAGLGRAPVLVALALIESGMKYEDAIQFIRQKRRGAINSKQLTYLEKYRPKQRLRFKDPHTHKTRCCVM
Sequence of Interleukin-8 (P10145 whole entry): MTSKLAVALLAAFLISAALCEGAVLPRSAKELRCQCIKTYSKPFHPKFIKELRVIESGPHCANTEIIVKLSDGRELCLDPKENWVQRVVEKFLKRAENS
Sequence of Protein SET (Homo sapiens) (Q01105 whole entry): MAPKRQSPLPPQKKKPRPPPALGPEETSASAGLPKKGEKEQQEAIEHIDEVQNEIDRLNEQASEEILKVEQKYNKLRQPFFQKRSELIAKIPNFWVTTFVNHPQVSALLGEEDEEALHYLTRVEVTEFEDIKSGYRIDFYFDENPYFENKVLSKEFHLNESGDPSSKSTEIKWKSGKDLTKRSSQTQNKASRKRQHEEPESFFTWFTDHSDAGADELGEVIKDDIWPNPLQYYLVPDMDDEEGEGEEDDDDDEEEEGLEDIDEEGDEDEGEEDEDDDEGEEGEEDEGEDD

SMILES: Cc1nc2c(c(C)c1O)CC(=O)N2
- IC50 [1]: 3.23 µM

SMILES: CCOC(=O)C1=C(C)NC(=O)NC1c1cccc([N+](=O)[O-])c1 (configuration not stated)
- IC50 [2]: 50 µM
- IC50 [3]: 50 µM

SMILES: CC(C)CC[C@@H]1NC(=O)[C@]2(C)CCCN2C1=O
- IC50 (MDA-MB-231 [4]): 73.4 µM
- IC50 (MDA-MB-468 [5]): 67.4 µM

SMILES: C=Cc1c(C)c2cc3nc(c4c5nc(cc6[nH]c(cc1[nH]2)c(C)c6CC)C(C)=C5C(=O)[C@@H]4C(=O)OC)C(CCC(=O)O)=C3C
- IC50 (MDA-MB-231 [6]): 6.5 µM

SMILES: O=C(O)C(=O)c1cn(Cc2ccccc2)c2ccc(-c3ccc(OC(F)(F)F)cc3)cc12
- IC [7]: 5 µM

SMILES: COc1cc2nccc(C(OC(C)=O)c3ccc4c(c3OC)C=CC(C)(C)O4)c2cc1OC (configuration not stated)
- IC50 (Hs-578T [8]): 5 µM
- IC50 (MDA-MB-231 [9]): 5 µM
- IC50 (BT-549 [10]): 15 µM

SMILES: CC[C@@H](C(=O)[C@@H](C)[C@@H](O)[C@H](C)[C@@H]1O[C@@H]([C@@H](CC)C(=O)O)CC[C@@H]1C)[C@H]1O[C@]2(C=C[C@@H](O)[C@]3(CC[C@@](C)([C@H]4CC[C@](O)(CC)[C@H](C)O4)O3)O2)[C@H](C)C[C@@H]1C [SALINOMYCIN]
- IC50 (MDA-MB-231 [9]): 0.5 µM

SMILES: COc1ccc2cc3[n+](cc2c1OC)CCc1cc2c(cc1-3)OCO2 [BERBERINE]
- IC50 (Interleukin-8): 50 µM

SMILES: COC(=O)[C@@H](O)[C@](O)(CCC(C)C)C(=O)O[C@@H]1C(OC)=C[C@]23CCCN2CCc2cc4c(cc2[C@H]13)OCO4
- IC50 (HCC1937): 0.5 µM
- IC50 (HCC1806): 0.1 µM

SMILES: CO[C@H]1/C=C\C=C(/C)C(=O)NC2=CC(=O)C(NCCN(C)C)=C(C[C@@H](C)C[C@H](OC)[C@H](O)[C@@H](C)/C=C(\C)[C@@H]1OC(N)=O)C2=O [ALVESPIMYCIN]
- IC50 (BT-549 [11]): 17.1 µM
- IC50 (MDA-MB-231 [12]): 45.7 µM
- IC50 (Hs-578T [13]): 0.0084 µM

SMILES: O=C(/C=C/c1ccc(O)c(O)c1)O[C@@H]1C[C@](OC(=O)/C=C/c2ccc(O)c(O)c2)(C(=O)O)C[C@@H](O)[C@H]1O [1,5-O-TRANS-DICAFFEOYLQUINIC ACID]
- IC50 (MDA-MB-231 [14]): 81.9 µM

SMILES: Clc1cc(Cl)cc(C(Cn2ccnc2)OCc2nc3ccccc3s2)c1 (configuration not stated)
- IC50 [2]: 5 µM

SMILES: COC(=O)Nc1nc2cc(C(=O)c3ccc(F)cc3)ccc2[nH]1 [FLUBENDAZOLE]
- IC50 (Hs-578T [8]): 0.125 µM
- IC50 (MDA-MB-231 [15]): 0.5 µM
- IC50 (MDA-MB-231 [9]): 0.25 µM
- IC50 (BT-549 [10]): 0.125 µM

SMILES: C=C1/C(=C\C=C2/CCC[C@]3(C)[C@@H]([C@H](C)CCCC(C)(C)O)CC[C@@H]23)C[C@@H](OC(=O)CBr)C[C@@H]1O
- IC [16]: 100 nM

SMILES: O=C(c1ccc(F)c(F)c1Nc1ccc(I)cc1F)N1CC(O)([C@@H]2CCCCN2)C1 [COBIMETINIB]
- IC50 [17]: 4.2 µM

SMILES: CC(=O)O[C@@H]1[C@@H](OC(C)=O)[C@@H](O)[C@H](Oc2c(-c3ccc(O)cc3)oc3cc(O)cc(O)c3c2=O)O[C@H]1C
- IC50 (HCC70): 15 µM
- IC50 (MDA-MB-231 [18]): 3 µM

SMILES: C#Cc1cccc(Nc2nc(Nc3ccc(Oc4ccccc4)cc3)nc3cc(OC)c(OC)cc23)c1
- IC [19]: 3 µM

SMILES: C=C1C(=O)O[C@]2(C)CC[C@H](CBr)[C@]12O
- IC50 (MDA-MB-436 [20]): 11.8 µM
- IC50 (MDA-MB-231 [15]): 12.1 µM
- IC50 (BT-549 [21]): 9.63 µM

SMILES: OC[C@H]1O[C@@H](OCCc2ccc(O)cc2)[C@H](O)[C@@H](O)[C@@H]1O [SALIDROSIDE]
- IC50 (MDA-MB-231 [15]): 40 µM

SMILES: Cc1c(-c2ccc(O)cc2)n(Cc2ccc(OCCN3CCCCCC3)cc2)c2ccc(O)cc12 [BAZEDOXIFENE]
- IC50 (MDA-MB-468 [22]): 3.14 µM
- IC50 (MDA-MB-231 [23]): 7.45 µM

SMILES: CC(=O)c1c(C)c2cnc(Nc3ccc(N4CCNCC4)cn3)nc2n(C2CCCC2)c1=O [PALBOCICLIB]
- EC50 (MDA-MB-436 [24]): 5 µM
- EC50 (MDA-MB-231 [25]): 0.3 µM
- EC50 (HCC38): 1.4 µM
